Target: T1, hP2X3 (human Purinergic P2X receptors subtype 3), clone B (Homo sapiens, UniProt P56373)
T1 sequence (P56373 1-397): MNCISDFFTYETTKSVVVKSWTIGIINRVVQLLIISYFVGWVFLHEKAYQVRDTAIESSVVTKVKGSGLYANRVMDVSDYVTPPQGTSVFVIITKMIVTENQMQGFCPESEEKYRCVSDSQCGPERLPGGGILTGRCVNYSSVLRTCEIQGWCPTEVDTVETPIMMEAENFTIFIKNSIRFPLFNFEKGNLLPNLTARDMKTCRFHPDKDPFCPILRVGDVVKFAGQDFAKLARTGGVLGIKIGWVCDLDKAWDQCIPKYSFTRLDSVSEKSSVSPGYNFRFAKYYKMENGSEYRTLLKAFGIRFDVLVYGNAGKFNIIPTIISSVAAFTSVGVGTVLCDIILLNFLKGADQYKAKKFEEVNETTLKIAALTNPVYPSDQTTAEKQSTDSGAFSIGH
Experiment: hP2X3 FLIPR calcium (Fluo-4) antagonist assay, clone B
Conditions: Human P2X3 FLIPR Clone B IC50 (nM), RLE cells expressing hP2X3 clone B (NM_002559); agonist 500 nM α,β-methylene-ATP
Method: The assay used a calcium indicator dye (Fluo-4) that emits fluorescence, the intensity of which is related to the concentration of calcium that entered the cell when P2X3 was activated and the channel opened. Activation of hP2X3 or rat P2X3 and rat P2X2/3 (from the coexpression of rat P2X3 and rat P2×2) is elicited the by P2X3 agonist α,β methylene-ATP (Sigma M6517), and the resulting fluorescence is measured with a FLIPR II™ instrument (Molecular Devices). Compounds are tested for their ability to inhibit the agonist-induced fluorescent signal.
For the rat P2X2/3 HEK-TREX cells, induction of the rat P2X3 expression is used to generate the rat P2X2/3 channels in HEK-TREX cells and performed by addition of 1 μg/mL tetracycline (Invitrogen) 24 h prior to compounds testing to the HEK-TREX expressing the rat P2X2 constitutively. On the day of the experiment, the cells and test compounds are prepared as follows. […] After preparing the compounds, the medium is removed from the cell plates by inversion. A loading solution of 30 μL assay buffer containing 4 μM of the calcium indicator dye FLUO-4 AM (Molecular Probes F14202) is added to each well using a Multidrop (Labsystems). […] The incubation is terminated by washing the cells four times in assay buffer using a Skatron Embla (Molecular Devices), and 25 μL of assay buffer was left in each well. Cell plates are then transferred to the FLIPR. Experiments are initiated by measuring a baseline fluorescence reading for 10 seconds, followed by the addition of 12.5 μL of cpds and data sampling for a total 280 seconds. The experiments are terminated by addition of 12.5 μL of a reference agonist (500 nM α,β-methylene-ATP) or buffer, producing a final assay volume of 50 μL followed by data sampling for an additional 280 seconds.
In P2X3 antagonist experiments (human and rat assays) data are analysed as normalised maximal peak fluorescence monitored following agonist addition and calculated as percent of relative fluorescent counts from control agonist. The dose-response antagonist inhibition curves are analyzed in a 4-parameter sigmoidal fit using a non-linear curve-fitting program (XLfit version 5.0.6, ID Business Solutions Limited, Guildford, UK).

Structure (SMILES) | IC50
CC(=O)N1CCN(c2nc(N[C@@H]3CCC[C@H]3c3ccc(Cl)cc3)c3c(n2)C(=O)N(C(C)C)C3)CC1 (racemic) [Example 33, 2-(4-acetylpiperazin-1-yl)-4-{[trans-2-(4-chlorophenyl)cyclopentyl]amino}-6-isopropyl-5,6-dihydro-7H-pyrrolo[3,4-d]pyrimidin-7-one] | 580 nM
CC(=O)N1CCN(c2nc(NC(C)C3COc4ccccc4O3)c3c(n2)C(=O)N(C(C)C)C3)CC1 (single isomer, unassigned) [Example 178, 2-(4-acetylpiperazin-1-yl)-4-(1-(2,3-dihydrobenzo[b][1,4]dioxin-2-yl)ethylamino)-6-isopropyl-5H-pyrrolo[3,4-d]pyrimidin-7(6H)-one] | 970 nM
CC(=O)N1CCN(c2nc(NC(C)C3COc4ccccc4O3)c3c(n2)C(=O)N(C(C)C)C3)CC1 (single isomer, unassigned) [Example 179, 2-(4-acetylpiperazin-1-yl)-4-(1-(2,3-dihydrobenzo[b][1,4]dioxin-2-yl)ethylamino)-6-isopropyl-5H-pyrrolo[3,4-d]pyrimidin-7(6H)-one] | 190 nM
CC(=O)N1CCN(c2nc3c(c(N4CCCC4c4ccc5ncccc5c4)n2)CN(C(C)C)C3=O)CC1 (single isomer, unassigned) [Example 284, 4-(4-acetylpiperazin-1-yl)-8-propan-2-yl-2-(2-quinolin-6-ylpyrrolidin-1-yl)-3,5,8-triazabicyclo[4.3.0]nona-1,3,5-trien-7-one] | 9900 nM
COc1ccc(CC2CCCN2c2nc(N3CCN(C(C)=O)CC3)nc3c2CN(C(C)C)C3=O)cc1 (single isomer, unassigned) [Example 288, 2-(4-acetylpiperazin-1-yl)-6-isopropyl-4-[2-[(4-methoxyphenyl)methyl]pyrrolidin-1-yl]-5H-pyrrolo[3,4-d]pyrimidin-7-one] | 1400 nM
CC(C)N1Cc2c(NCc3cnc4ccccc4c3)nc(N3CCN4CCCC4C3)nc2C1=O (stereo in doubt) [Example 141, (R)-2-(Hexahydro-pyrrolo[1,2-a]pyrazin-2-yl)-6-isopropyl-4-[(quinolin-3-ylmethyl)-amino]-5,6-dihydro-pyrrolo[3,4-d]pyrimidin-7-one] | 7600 nM
CC(=O)N1CCN(c2nc(NC3CCCc4ccccc43)c3c(n2)C(=O)N(C(C)C)C3)CC1 (centres unmarked) [Example 1, 2-(4-acetylpiperazin-1-yl)-6-isopropyl-4-(1,2,3,4-tetrahydronaphthalen-1-ylamino)-5,6-dihydro-7H-pyrrolo[3,4-d]pyrimidin-7-one] | 4800 nM
CCOC(=O)C(CNc1nc(N2CCN(C(C)=O)CC2)nc2c1CN(C(C)C)C2=O)c1ccccc1 (centres unmarked) [Example 2, ethyl 3-{[2-(4-acetylpiperazin-1-yl)-6-isopropyl-7-oxo-6,7-dihydro-5H-pyrrolo[3,4-d]pyrimidin-4-yl]amino}-2-phenylpropanoate] | 1900 nM

Molecules with a lower IC50, results first:

IC50 | Structure (SMILES)
100 nM | CC(=O)N1CCN(c2nc3c(c(N4CCCC4c4ccc5ncccc5c4)n2)CN(C(C)C)C3=O)CC1 (single isomer, unassigned) [Example 285, 4-(4-acetylpiperazin-1-yl)-8-propan-2-yl-2-(2-quinolin-6-ylpyrrolidin-1-yl)-3,5,8-triazabicyclo[4.3.0]nona-1,3,5-trien-7-one]
29 nM | CCC(C)N1Cc2c(NCc3cc4ccccc4cn3)nc(N3CCN(C(C)=O)CC3)nc2C1=O (single isomer, unassigned; (+)) [Example 310, (+)-2-(4-acetylpiperazin-1-yl)-4-(3-isoquinolylmethylamino)-6-sec-butyl-5H-pyrrolo[3,4-d]pyrimidin-7-one]
42 nM | CCC(C)N1Cc2c(NCc3cnc4ccccc4c3)nc(N3CCN(C(C)=O)CC3)nc2C1=O (single isomer, unassigned; (-)) [Example 309, (−)-2-(4-acetylpiperazin-1-yl)-4-(3-quinolylmethylamino)-6-sec-butyl-5H-pyrrolo[3,4-d]pyrimidin-7-one]

Reference: US20090099195A1 (ASTRAZENECA AB, priority 2007, published 2009)
